Results taken from ChEMBL document CHEMBL1201862, “PubChem BioAssay data set” (2004).
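Cultured in 96-well plates, cells were exposed to test compound for 48 hours across five concentrations. GI50: concentration for 50% inhibition of growth.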 Calls of active or inactive are those of the source. Cut-off read from the data, not from the text of the source: active = GI50 up to about 1.1 µM and inactive = higher.

Columns and labels:
Test in all cases: inhibition of tumour cell growth, NCI panel, 48 h
[1] = tested on: SF-268
[2] = tested on: ACHN
[3] = tested on: Malme-3M
[4] = tested on: SR
[5] = tested on: SF-295
[6] = tested on: DU-145
[7] = tested on: SK-OV-3
[8] = tested on: RXF 393
[9] = tested on: OVCAR-4
[10] = tested on: SK-MEL-5
[11] = tested on: NCI-H460
[12] = tested on: Hs-578T
[13] = tested on: MDA-MB-435
[14] = tested on: HT-29
[15] = tested on: U-251
[16] = tested on: MDA-MB-231
[17] = tested on: SW-620
[18] = tested on: LOX IMVI
[19] = tested on: NCI-H23
[20] = tested on: HOP-62
[21] = tested on: T47D
[22] = tested on: HCT-15
[23] = tested on: SNB-75
[24] = tested on: CCRF-CEM
[25] = tested on: UACC-257
[26] = tested on: NCI/ADR-RES
[27] = tested on: K562
[28] = tested on: HL-60
[29] = tested on: EKVX
[30] = tested on: TK-10
[31] = tested on: RPMI-8226
[32] = tested on: BT-549
[33] = tested on: OVCAR-5
[34] = tested on: SNB-19
[35] = tested on: OVCAR-8
[36] = tested on: PC-3
[37] = tested on: HOP-92
[38] = tested on: MCF7
[39] = tested on: KM12
[40] = tested on: A549
[41] = tested on: A498
[42] = tested on: SN12C
[43] = tested on: NCI-H522
[44] = tested on: COLO 205
[45] = tested on: HCT-116
[46] = tested on: CAKI-1
[47] = tested on: HCC 2998
[48] = tested on: 786-0
[49] = tested on: SF-539
[50] = tested on: SK-MEL-28
[51] = tested on: NCI-H226
[52] = tested on: MDA-N
[53] = tested on: MOLT-4
[54] = tested on: UO-31
[55] = tested on: UACC-62
[56] = tested on: IGROV-1
[57] = tested on: OVCAR-3
[58] = tested on: SK-MEL-2
[59] = tested on: M14

Measured: GI50

CCOP(=O)(CCCC(O)CNc1nc(N)nc(Cl)c1/N=N/c1ccc(Cl)cc1)OCC (configuration not stated)
inactive: [1] 4.27 µM | [2] 4.05 µM | [3] 7.64 µM | [4] 2.64 µM | [5] 7.46 µM | [6] 6.14 µM | [7] 3.19 µM | [8] 5.24 µM | [9] 4.45 µM | [10] 4.66 µM | [11] 11.1 µM | [12] 4.85 µM | [13] 5.85 µM | [14] 9.73 µM | [15] 8.57 µM | [16] 2.59 µM | [17] 12.3 µM | [18] 3.75 µM | [19] 12.1 µM | [20] 9.89 µM | [21] 5.09 µM | [23] 3.29 µM | [24] 3.21 µM | [25] 5.38 µM | [26] 10.4 µM | [27] 4.63 µM | [28] 1.75 µM | [29] 3.63 µM | [30] 3.67 µM | [31] 2.82 µM | [32] 6.28 µM | [33] 10.9 µM | [34] 10.6 µM | [35] 8.47 µM | [36] 4.86 µM | [37] 5.6 µM | [38] 11.9 µM | [39] 11.2 µM | [40] 10.6 µM | [41] 6.7 µM | [42] 5.15 µM | [43] 5.69 µM | [44] 6.64 µM | [45] 8.28 µM | [46] 3.02 µM | [47] 15.4 µM | [48] 5.27 µM | [49] 9.25 µM | [50] 8.22 µM | [51] 7.05 µM | [52] 5.82 µM | [53] 3.24 µM | [54] 3.56 µM | [55] 5.13 µM | [56] 11.9 µM | [57] 5.73 µM | [58] 12.2 µM
6.28 µM: [22]

CN1CCCC(C(=O)OCC(=O)C2(O)CCC3C4CCC5=CC(=O)CCC5(C)C4C(O)CC32C)C1 (configuration not stated)
inactive: [1] 20.9 µM | [2] 17.9 µM | [3] 17 µM | [4] 1.96 µM | [5] 19.9 µM | [6] 18.7 µM | [7] 16.3 µM | [8] 8.49 µM | [9] 13.4 µM | [10] 19.1 µM | [11] 11.5 µM | [12] 35.3 µM | [13] 12.6 µM | [14] 10.8 µM | [15] 4.29 µM | [16] 4.32 µM | [17] 6.27 µM | [18] 10.9 µM | [19] 20.5 µM | [20] 14.6 µM | [21] 10.3 µM | [23] 4.85 µM | [24] 4.9 µM | [25] 18.3 µM | [26] 20 µM | [27] 9.12 µM | [28] 3.69 µM | [29] 17.1 µM | [30] 12.5 µM | [31] 4.23 µM | [32] 16.7 µM | [33] 18.1 µM | [34] 8.05 µM | [35] 15 µM | [36] 11.4 µM | [37] 50.9 µM | [38] 12.6 µM | [39] 25.2 µM | [40] 16.4 µM | [41] 16.4 µM | [42] 8.73 µM | [43] 17.3 µM | [59] 23.2 µM | [44] 18 µM | [45] 8.97 µM | [46] 24.2 µM | [47] 7.89 µM | [48] 4.2 µM | [49] 2.12 µM | [50] 17.7 µM | [51] 17.1 µM | [52] 10.7 µM | [53] 18.7 µM | [54] 8.11 µM | [55] 18.1 µM | [56] 23.4 µM | [57] 17 µM | [58] 19.5 µM
18.7 µM: [22]
